Reference: patent US20020062490A1, “Hypertension” (priority 2000, published 2002)
Where “and” joins values, the source holds several entries; their conditions need not be identical. Equal values may be shown once.

Experiments:
[1] = Blood pressure responses in anesthetized mice to infused GPCR agonists; format: in vivo; details: for MAP response (increase over resting MAP): 8 μg/kg phenylephrine; for decrease from resting MAP: 0.156 μg/kg isoproterenol, n=3; for change from resting diastolic pressure: 0.625 μg/kg isoproterenol; for diastolic pressure response: 10 μg/kg isoproterenol; for increase over resting MAP: 1 μg/kg angiotensin II
Description: In order to begin to understand the mechanisms involved in the GRK2 overexpression-induced hypertension and the receptors that are desensitized, blood pressure responses were measured in anesthetized mice following angiotensin II (FIG. 5A), phenylephrine (FIG. 5B) or isoproterenol (FIG. 5C) infusion. The response to 1 μg/kg angiotensin II was attenuated (NLC 91+12%, n=9 versus BK25 43+8% increase over resting MAP, n=4, p=0.02), as were responses to 8 μg/kg phenylephrine (NLC: 44±11% versus 4±5%, n=4, p=0.04). MAP responses to isoproterenol were not different in GRK2 overexpressing mice as compared with NLC. However, isoproterenol has a significant effect on heart rate that could affect MAP. Therefore, diastolic pressure was examined as a rough estimate of peripheral resistance.
In vivo Physiology: Mice were anesthetized with ketamine (100 mg/kg body weight) and xylazine (5 mg/kg body weight). Subsequently, a flexible plastic catheter (flame-stretched PE50 tubing) was placed in the left carotid artery to monitor arterial pressure and tunneled subcutaneously to exit at the nape of the neck. The catheter was then flushed with 100 μL of heparinized phosphate-buffered saline (PBS) (30 U/mL), sealed and attached to the skin between the scapulae. Twenty-four hours later, blood pressure measurements are recorded from awake, unrestrained mice. Intra-arterial blood pressure is recorded continuously through the carotid catheter using PowerLab (ADInstruments, Mountainview, Calif.) data acquisition and software. In both anesthetized and awake animals, systolic (SBP) and diastolic blood pressure (DBP), and heart rate were measured. Mean arterial pressure (MAP) was calculated as DBP+⅓(SBP- DBP). The recordings from animals in each experimental group were then integrated and averaged. To analyze acute blood pressure responses, a second catheter was placed in the jugular vein to infuse agonists. Immediately following an equilibration period, mice received a bolus injection at 2-5 min intervals.

[2] = system: thoracic aorta ring segments; assay: Responses of isolated thoracic aorta ring segments to GPCR agonists; set-up: species or system mice
Description: In Vitro Physiology: Aorta were dissected and cut into 2.5 mm rings. Rings were then placed in a 37° C. chamber (Kent Scientific) containing Krebs-Hensileit buffer and bubbled with 95% O2/5% CO2. Two stainless steel wires were placed through each ring and one wire is attached to a fixed end. The other was attached to a force transducer and contraction is measured by force displacement (PowerLab, ADInstruments, Mountainview, Calif.). Responses to various agonists were tested in the presence and absence (mechanically scraped using a thin wire or chemical inhibition of nitric oxide synthase using 100 μM L-NAME) of endothelial cells. For isoproterenol responses, pretension was established at 60% of the maximum phenylephrine response (3×10^−7M PE).
Pharmacology: To analyze the effect of VSM GRK2 overexpression independent of autonomic influences on the peripheral vasculature, responses of isolated thoracic aorta ring segments to the GPCR agonists isoproterenol (βAR) and phenylephrine ([…]) were examined. Endothelial cell presence was first verified by relaxation responses to 10^−5M acetylcholine. […] Accordingly, pretension for the βAR studies was established using 3×10^−7M phenylephrine, which corresponded to 60% maximum phenylephrine stimulation in both NLC and transgenic mice. […]

[3] = system: aortic VSM cells; assay: Intracellular cAMP accumulation (adenylyl cyclase activity) in cultured aortic VSM cells; format: cell-based; details: aortic VSM cells from SM22α-GRK2-25 mice, compared with NLC cells
Description: Cell Culture: Primary cultures of VSM from thoracic aortas and vena cava were obtained and cultured as described (Chen et al, J. Biol. Chem. 270:30980-30988 (1995)). To determine adenylyl cyclase activity, cultured cells were grown to four days post-confluence. Cells were then labeled overnight in 3.0 μCi/mL [^3H]adenine (DuPont/NEN) in medium 199 and then preincubated in medium 199 with 10 mM Hepes and 1 mM 3-isobutyl-1-methylxanthine (IBMX) for 30 min. Cells were then stimulated with the appropriate concentration of isoproterenol or […] for 15 minutes. Following incubation, cAMP was determined by anion exchange chromatography and a percent incorporation of the total [^3H] uptake was calculated. To determine if enhanced expression and activity of GRK2 seen in cultured VSM cells from SM22α-GRK2 mice could exert an effect on signaling, intracellular cAMP accumulation in cultured aortic VSM cells in response to the βAR agonist isoproterenol was examined.

[4] = system: aortic VSM cells; assay: MAPK (ERK1/2) activity after βAR stimulation in aorta VSM cells; format: cell-based, mice; details: 10^−5M isoproterenol, 5 minutes
Description: MAPK Activity: To study MAPK activity, cells were stimulated with isoproterenol at the described concentration for 5 minutes. Cells were then harvested and homogenized in ice-cold RIPA buffer with 1 mM sodium orthovanadate (Iaccarino et al, Proc. Natl. Acad. Sci. USA 96:3945-3950 (1999b)). MAPK activity as assessed by phosphorylated protein levels was performed by activity assays as previously described (Iaccarino et al, Proc. Natl. Acad. Sci. USA 96:3945-3950 (1999b)). Protein immunoblotting for the activated phosphorylated forms of ERK1/2 and JNK1/3 (New England Biolabs) was normalized to total MAPK levels using antibodies specific to total ERK1/2 and JNK1 (Santa Cruz Biotechnologies, California).
As a second assay to measure βAR mediated signaling in VSM cells from GRK2 transgenic and NLC mice, we investigated MAPK activity after βAR stimulation. Two MAPKs were studied, extracellular-regulated kinase (ERK1/2 or p42/p44 MAPKs) and c-jun kinase (JNK). FIG. 7C is a representative autoradiograph of the ability of immunoprecipitated ERK1/2 or JNK1/3 to phosphorylates their in vitro substrates myelin basic protein (MBP) or GST-c-jun, respectively, after the addition of different doses of isoproterenol to aortic VSM cells from NLC and SM22α-GRK2-25 mice. […] This was also the case for the activity of JNK1/3 and its ability to phosphorylate GST-c-jun (FIG. 7C). […]

CNC[C@H](O)c1cccc(O)c1 [phenylephrine]
MAP response (increase over resting MAP) ([1]; anesthetized GRK2 overexpressing (BK25) mice, n=4): 4±5%
MAP response (increase over resting MAP) ([1]; anesthetized NLC (WT) mice): 44±11%
fraction of maximum phenylephrine stimulation (pretension) ([2]; 3×10^−7M phenylephrine, aorta rings of both NLC and transgenic mice): 60%
constriction of aorta rings, NLC compared with SM22α-GRK2-25 mice ([2]; cumulative dose response): similar

CC(C)NCC(O)c1ccc(O)c(O)c1 (stereo not shown) [isoproterenol]
decrease from resting MAP ([1]; anesthetized NLC mice): −30±2.8 mmHg
decrease from resting MAP ([1]; anesthetized SM22α-GRK2 mice): −4.7±3.2 mmHg
change from resting diastolic pressure ([1]; anesthetized BK25 mice, n=4): −11±3%
change from resting diastolic pressure ([1]; anesthetized NLC mice, n=9): −39±8%
diastolic pressure response ([1]; anesthetized BK25 mice, n=4): −11±3%
diastolic pressure response ([1]; anesthetized WT mice, n=9): −39±8%
MAP responses, GRK2 overexpressing mice compared with NLC ([1]; anesthetized mice, cumulative doses of isoproterenol): not different
cAMP generation [3]: minimal increase
induction of phosphorylation status of ERK1/2 ([4]; NLC VSM cells): robust increase
induction of phosphorylation status of ERK1/2 (activation) ([4]; SM22α-GRK2-25 VSM cells): virtually abolished

angiotensin II [GPCR agonist infused to raise blood pressure]
increase over resting MAP ([1]; anesthetized BK25 (GRK2 overexpressing) mice, n=4): 43+8% and 43±8%
increase over resting MAP ([1]; anesthetized NLC (WT) mice, n=9): 91+12% and 91±12%
